Structures are written as SMILES.

The target of test [1] is T1, Inhibitor of nuclear factor kappa-B kinase subunit alpha (Homo sapiens) (UniProt O15111).
T1 sequence (whole entry): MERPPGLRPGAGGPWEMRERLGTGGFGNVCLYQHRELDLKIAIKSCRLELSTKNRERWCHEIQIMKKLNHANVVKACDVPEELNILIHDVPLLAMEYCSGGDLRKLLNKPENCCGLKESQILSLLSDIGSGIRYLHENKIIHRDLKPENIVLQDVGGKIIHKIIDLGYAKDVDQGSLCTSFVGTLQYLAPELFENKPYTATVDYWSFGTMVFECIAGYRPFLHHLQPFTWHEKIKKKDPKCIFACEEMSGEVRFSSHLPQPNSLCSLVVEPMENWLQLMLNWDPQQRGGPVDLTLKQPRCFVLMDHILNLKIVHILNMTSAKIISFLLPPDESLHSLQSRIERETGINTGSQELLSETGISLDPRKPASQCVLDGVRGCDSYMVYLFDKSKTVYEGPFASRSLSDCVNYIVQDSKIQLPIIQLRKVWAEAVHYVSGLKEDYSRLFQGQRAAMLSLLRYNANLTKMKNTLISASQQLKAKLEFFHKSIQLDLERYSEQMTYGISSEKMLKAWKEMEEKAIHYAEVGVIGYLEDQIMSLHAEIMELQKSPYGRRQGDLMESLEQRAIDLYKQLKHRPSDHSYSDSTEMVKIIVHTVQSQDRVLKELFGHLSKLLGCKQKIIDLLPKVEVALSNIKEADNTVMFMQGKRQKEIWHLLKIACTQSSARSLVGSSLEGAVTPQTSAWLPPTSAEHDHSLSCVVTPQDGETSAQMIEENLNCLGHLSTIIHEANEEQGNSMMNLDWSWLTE
In words: Inhibition of IKK-alpha (unknown origin) assessed as residual activity at 1000 nM by KINOMEscan analysis relative to control.

The target in test [2] is Homeodomain-interacting protein kinase 3 (Homo sapiens) (UniProt Q9H422). In words: Inhibition of HIPK3 (unknown origin) assessed as residual activity at 1000 nM by KINOMEscan analysis relative to control.
Chain of Homeodomain-interacting protein kinase 3 (Homo sapiens) (Q9H422 whole entry, looked up): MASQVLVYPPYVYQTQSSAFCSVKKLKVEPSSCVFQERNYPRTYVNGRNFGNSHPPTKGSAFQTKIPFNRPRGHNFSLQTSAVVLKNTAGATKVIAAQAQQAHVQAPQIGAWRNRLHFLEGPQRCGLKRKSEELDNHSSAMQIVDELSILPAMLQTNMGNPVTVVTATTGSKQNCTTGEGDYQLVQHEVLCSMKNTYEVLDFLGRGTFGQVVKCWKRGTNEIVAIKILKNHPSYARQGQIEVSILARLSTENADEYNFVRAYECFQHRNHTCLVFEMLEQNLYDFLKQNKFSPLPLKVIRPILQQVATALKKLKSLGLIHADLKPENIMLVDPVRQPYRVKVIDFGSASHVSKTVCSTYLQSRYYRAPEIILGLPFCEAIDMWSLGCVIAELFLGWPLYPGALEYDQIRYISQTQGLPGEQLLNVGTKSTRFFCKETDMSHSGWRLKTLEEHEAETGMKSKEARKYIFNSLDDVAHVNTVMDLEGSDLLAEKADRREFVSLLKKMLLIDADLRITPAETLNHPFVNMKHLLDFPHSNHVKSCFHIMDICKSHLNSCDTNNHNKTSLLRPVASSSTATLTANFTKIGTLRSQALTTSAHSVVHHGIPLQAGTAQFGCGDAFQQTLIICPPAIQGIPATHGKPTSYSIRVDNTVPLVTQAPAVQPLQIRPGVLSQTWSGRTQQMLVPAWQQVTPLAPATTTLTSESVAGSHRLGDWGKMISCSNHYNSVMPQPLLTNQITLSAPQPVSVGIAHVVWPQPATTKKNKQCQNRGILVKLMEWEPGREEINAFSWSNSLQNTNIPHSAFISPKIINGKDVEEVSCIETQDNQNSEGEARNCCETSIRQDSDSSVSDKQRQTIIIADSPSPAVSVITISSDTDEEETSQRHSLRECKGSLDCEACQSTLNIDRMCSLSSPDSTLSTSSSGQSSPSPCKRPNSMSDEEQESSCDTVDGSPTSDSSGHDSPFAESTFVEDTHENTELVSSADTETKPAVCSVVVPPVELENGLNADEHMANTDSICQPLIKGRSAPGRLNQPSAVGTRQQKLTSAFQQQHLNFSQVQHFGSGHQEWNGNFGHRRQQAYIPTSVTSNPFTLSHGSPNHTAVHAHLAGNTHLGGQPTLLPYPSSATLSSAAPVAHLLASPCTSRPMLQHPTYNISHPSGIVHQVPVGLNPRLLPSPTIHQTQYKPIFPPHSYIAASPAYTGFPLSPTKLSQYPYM
In test [3] the test system is Receptor-type tyrosine-protein kinase FLT3 (Homo sapiens), P36888 [R834Q]. In words: Inhibition of FLT3 R834Q mutant (unknown origin) assessed as residual activity at 1000 nM by KINOMEscan analysis relative to control.
In test [4] the target is Cyclin-dependent kinase 11B (Homo sapiens) (UniProt P21127). In words: Inhibition of CDK11 (unknown origin) assessed as residual activity at 1000 nM by KINOMEscan analysis relative to control.
Chain of Cyclin-dependent kinase 11B (Homo sapiens) (P21127 whole entry): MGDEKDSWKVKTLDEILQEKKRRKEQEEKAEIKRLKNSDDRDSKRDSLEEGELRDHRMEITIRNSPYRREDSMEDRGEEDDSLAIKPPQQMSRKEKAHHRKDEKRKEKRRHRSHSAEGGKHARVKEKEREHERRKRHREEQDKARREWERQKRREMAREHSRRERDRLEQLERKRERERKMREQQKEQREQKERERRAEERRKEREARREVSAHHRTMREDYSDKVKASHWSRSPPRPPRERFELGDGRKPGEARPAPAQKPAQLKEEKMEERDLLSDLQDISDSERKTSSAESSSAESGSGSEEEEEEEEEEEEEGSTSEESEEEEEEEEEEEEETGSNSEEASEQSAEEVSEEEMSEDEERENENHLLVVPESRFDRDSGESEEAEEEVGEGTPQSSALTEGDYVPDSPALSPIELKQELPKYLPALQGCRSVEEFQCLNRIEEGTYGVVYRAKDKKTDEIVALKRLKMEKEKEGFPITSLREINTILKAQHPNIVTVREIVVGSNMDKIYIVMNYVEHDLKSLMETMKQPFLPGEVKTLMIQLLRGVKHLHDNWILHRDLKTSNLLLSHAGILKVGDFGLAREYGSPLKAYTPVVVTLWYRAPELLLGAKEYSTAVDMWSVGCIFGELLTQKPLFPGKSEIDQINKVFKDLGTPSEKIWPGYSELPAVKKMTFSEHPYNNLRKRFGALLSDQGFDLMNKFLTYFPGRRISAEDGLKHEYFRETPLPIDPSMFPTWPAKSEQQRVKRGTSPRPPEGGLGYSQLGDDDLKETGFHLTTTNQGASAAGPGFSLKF
Test [5] addresses Serine/threonine-protein kinase MRCK alpha (Homo sapiens) (UniProt Q5VT25). In words: Inhibition of MRCKA (unknown origin) assessed as residual activity at 1000 nM by KINOMEscan analysis relative to control.
For test [6], the target named is T2, Serine/threonine-protein kinase TNNI3K (Homo sapiens) (UniProt Q59H18).
T2 sequence (whole entry): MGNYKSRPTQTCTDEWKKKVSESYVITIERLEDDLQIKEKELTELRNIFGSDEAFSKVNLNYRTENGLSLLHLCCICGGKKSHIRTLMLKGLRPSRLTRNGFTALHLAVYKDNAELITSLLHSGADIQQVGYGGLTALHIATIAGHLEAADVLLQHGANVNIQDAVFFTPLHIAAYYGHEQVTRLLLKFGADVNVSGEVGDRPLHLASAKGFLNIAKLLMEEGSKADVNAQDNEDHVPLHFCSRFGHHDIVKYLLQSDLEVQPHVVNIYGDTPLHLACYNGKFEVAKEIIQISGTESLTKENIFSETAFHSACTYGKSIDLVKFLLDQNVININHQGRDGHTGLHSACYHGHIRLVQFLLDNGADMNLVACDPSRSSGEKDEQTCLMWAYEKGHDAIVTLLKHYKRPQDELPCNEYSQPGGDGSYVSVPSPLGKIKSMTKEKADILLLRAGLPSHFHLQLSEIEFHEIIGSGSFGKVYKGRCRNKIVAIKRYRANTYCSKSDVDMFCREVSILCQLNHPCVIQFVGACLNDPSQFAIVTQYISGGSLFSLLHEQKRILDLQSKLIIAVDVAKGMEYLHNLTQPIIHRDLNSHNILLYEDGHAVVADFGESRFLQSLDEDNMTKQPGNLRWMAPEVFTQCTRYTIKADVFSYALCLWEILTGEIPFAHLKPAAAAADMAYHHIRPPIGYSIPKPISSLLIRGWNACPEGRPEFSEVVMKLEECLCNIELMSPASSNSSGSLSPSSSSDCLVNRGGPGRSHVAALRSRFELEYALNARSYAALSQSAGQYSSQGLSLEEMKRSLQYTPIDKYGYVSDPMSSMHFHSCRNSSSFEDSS
Briefly: Inhibition of TNNI3K (unknown origin) assessed as residual activity at 1000 nM by KINOMEscan analysis relative to control.

Test [7] addresses T3, Ephrin type-B receptor 3 (Homo sapiens) (UniProt P54753).
T3 sequence (whole entry): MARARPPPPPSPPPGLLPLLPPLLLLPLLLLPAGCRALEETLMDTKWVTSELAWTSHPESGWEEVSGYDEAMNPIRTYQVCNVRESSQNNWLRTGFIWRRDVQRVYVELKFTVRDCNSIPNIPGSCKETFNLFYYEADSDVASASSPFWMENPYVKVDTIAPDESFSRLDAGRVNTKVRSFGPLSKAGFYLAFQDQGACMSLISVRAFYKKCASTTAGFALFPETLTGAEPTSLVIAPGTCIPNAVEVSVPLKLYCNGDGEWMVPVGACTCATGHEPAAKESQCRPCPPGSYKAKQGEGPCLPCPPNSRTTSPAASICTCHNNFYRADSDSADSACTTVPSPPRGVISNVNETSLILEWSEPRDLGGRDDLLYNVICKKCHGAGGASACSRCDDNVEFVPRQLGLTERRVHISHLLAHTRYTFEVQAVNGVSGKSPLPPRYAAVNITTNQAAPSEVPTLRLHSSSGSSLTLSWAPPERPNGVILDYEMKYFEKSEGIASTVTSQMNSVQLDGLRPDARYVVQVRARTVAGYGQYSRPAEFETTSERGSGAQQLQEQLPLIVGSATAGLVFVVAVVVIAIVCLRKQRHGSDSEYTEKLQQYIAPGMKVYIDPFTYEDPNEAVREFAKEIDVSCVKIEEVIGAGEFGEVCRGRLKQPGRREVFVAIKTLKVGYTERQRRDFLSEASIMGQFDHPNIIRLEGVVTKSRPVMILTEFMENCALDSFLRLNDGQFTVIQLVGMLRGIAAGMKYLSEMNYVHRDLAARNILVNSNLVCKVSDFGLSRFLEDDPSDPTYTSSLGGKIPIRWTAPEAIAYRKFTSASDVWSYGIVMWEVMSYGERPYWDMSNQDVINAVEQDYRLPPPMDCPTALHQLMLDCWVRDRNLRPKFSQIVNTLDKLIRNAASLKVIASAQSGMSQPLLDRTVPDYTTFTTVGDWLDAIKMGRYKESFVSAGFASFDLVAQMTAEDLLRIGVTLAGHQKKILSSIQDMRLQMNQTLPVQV
In words: Inhibition of EPHB3 (unknown origin) assessed as residual activity at 1000 nM by KINOMEscan analysis relative to control.

Chain of Serine/threonine-protein kinase MRCK alpha (Homo sapiens) (Q5VT25 whole entry): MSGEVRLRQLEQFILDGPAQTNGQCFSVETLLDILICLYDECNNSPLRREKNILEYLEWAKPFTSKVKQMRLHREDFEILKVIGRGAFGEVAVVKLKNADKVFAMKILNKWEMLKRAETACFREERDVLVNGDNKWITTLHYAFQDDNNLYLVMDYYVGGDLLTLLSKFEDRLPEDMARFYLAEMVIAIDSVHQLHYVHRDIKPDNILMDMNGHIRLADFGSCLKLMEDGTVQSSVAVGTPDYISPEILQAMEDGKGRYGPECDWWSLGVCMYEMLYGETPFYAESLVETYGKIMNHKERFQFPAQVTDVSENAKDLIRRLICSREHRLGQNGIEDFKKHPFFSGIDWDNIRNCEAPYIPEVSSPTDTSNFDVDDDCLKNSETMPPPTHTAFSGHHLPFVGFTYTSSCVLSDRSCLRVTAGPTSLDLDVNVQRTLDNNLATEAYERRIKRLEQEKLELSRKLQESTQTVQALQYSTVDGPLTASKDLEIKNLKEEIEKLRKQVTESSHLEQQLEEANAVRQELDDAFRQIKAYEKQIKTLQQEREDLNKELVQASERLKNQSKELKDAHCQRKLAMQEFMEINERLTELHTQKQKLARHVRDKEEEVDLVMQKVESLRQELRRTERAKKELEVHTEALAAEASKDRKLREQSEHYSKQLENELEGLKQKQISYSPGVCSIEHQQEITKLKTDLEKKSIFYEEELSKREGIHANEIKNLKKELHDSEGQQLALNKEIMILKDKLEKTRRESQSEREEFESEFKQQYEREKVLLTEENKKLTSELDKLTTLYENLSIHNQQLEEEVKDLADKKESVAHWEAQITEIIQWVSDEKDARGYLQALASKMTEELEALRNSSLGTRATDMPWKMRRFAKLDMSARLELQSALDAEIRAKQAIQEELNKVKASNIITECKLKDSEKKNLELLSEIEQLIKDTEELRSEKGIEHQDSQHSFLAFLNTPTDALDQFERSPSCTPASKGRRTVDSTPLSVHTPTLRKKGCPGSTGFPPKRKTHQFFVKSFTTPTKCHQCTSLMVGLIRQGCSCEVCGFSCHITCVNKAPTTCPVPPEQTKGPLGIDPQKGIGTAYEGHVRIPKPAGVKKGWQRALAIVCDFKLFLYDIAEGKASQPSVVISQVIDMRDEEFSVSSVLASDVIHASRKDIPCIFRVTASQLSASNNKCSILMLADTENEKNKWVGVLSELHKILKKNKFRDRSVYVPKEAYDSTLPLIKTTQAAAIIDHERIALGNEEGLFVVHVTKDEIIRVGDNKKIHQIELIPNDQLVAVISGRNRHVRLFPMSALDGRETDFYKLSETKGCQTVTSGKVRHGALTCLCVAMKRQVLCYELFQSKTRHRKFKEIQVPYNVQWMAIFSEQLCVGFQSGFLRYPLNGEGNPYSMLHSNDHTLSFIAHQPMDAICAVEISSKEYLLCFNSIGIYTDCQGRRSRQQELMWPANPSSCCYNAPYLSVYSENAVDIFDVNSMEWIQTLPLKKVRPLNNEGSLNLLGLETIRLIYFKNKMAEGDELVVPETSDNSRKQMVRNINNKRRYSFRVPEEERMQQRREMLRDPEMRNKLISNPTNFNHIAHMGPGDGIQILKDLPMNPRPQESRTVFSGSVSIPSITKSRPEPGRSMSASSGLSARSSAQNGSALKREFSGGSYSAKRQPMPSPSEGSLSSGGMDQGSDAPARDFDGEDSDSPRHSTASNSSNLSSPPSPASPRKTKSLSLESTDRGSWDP

With `COc1cc2nc(C)nc(N[C@H](C)c3cccc(-c4cn[nH]c4)c3)c2cc1OC`, the Activity in test [1] amounted to 81%; in test [2], 69%; in test [3], 89%; in test [4], 100%; in test [5] it was 94%; in test [6], 96%. Moreover, the Activity in test [7] amounted to 100%.

Turning to `COc1cc2ncnc(N[C@H](C)c3cccc4ccccc34)c2cc1OC`, the Activity in test [1] worked out at 70%; in test [2], 88%; in test [3] it was 91%; in test [4] it was 84%; in test [5], 100%; in test [6], 100%. In addition, the Activity in test [7] came out at 100%.

Values taken from ChEMBL document CHEMBL5678818, “Discovery of potent SOS1 inhibitors that block RAS activation via disruption of the RAS-SOS1 interaction” (Proc Natl Acad Sci U S A, 2019).
